Data from the supplement of paper PMC10307832.

How the values were obtained:
Experiment in all cases: relative viability (nuclei count vs DMSO), 5 days (fraction); higher = more cells survive
[1] = compound: C1/C(=C\C2=CC=CS2)/C(=O)/C(=C/C3=CC=CS3)/C1 + C[C@@H](Oc1cc(-c2cnn(C3CCNCC3)c2)cnc1N)c1c(Cl)ccc(F)c1Cl [Crizotinib] (partner 1 µM)
Method in brief: (§1)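 Lung cancer cell lines in 1536-well plates were dosed by pin tool the day after seeding, either with one drug alone or with a fixed anchor-drug dose plus five library-drug doses (not always all listed) in √10 steps. After 5 days, cells were fixed and their nuclei stained in one step (final 0.05% Triton X-100, 1% formaldehyde, 1 ug/ml Hoechst), then counted on 4× images. Relative viability is the nuclei count in treated wells divided by that in vehicle wells. Values are medians of duplicate plates.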

TPCA-1 + Decitabine = compound: C1=CC(=CC=C1C2=CC(=C(S2)NC(=O)N)C(=O)N)F [TPCA-1] + Nc1ncn([C@H]2C[C@H](O)[C@@H](CO)O2)c(=O)n1 [Decitabine] (partner 2 µM)
Method in brief: as §1

[2] = compound: C[C@]12O[C@H](C[C@]1(O)CO)n1c3ccccc3c3c4c(c5c6ccccc6n2c5c31)CNC4=O [Lestaurtinib] + CCNC(=O)c1noc(-c2cc(C(C)C)c(O)cc2O)c1-c1ccc(CN2CCOCC2)cc1 [Luminespib] (partner 0.01 µM)
Method in brief: as §1

[3] = compound: C1/C(=C\C2=CC=CS2)/C(=O)/C(=C/C3=CC=CS3)/C1 + CC(C)C[C@H](NC(=O)[C@H](Cc1ccccc1)NC(=O)c1cnccn1)B(O)O [Bortezomib] (partner 0.002 µM)
Method in brief: as §1

Row | Cell Line | relative viability ([1]; first compound 0.2 µM) | relative viability ([1]; first compound 0.6325 µM) | relative viability ([1]; first compound 2 µM) | relative viability ([1]; first compound 6.325 µM) | relative viability ([1]; first compound 20 µM) | relative viability (TPCA-1 + Decitabine; first compound 0.04 µM) | relative viability (TPCA-1 + Decitabine; first compound 0.1265 µM) | relative viability (TPCA-1 + Decitabine; first compound 0.4 µM) | relative viability (TPCA-1 + Decitabine; first compound 1.265 µM) | relative viability (TPCA-1 + Decitabine; first compound 4 µM) | relative viability ([2]; first compound 0.005 µM) | relative viability ([2]; first compound 0.01581 µM) | relative viability ([2]; first compound 0.05 µM) | relative viability ([2]; first compound 0.1581 µM) | relative viability ([2]; first compound 0.5 µM) | relative viability ([3]; first compound 0.2 µM) | relative viability ([3]; first compound 0.6325 µM) | relative viability ([3]; first compound 2 µM) | relative viability ([3]; first compound 6.325 µM) | relative viability ([3]; first compound 20 µM)
1 | NCI-H2170 | 1.29 | 1.29 | 1.26 | 1.03 | 1.07 | 0.493 | 0.433 | 0.444 | 0.453 | 0.385 | 0.501 | 0.519 | 0.593 | 0.383 | 0.266 | – | – | – | – | –
2 | HCC-366 | 0.421 | 0.651 | 0.525 | 0.451 | 0.513 | – | 0.285 | 0.361 | 0.271 | 0.322 | – | – | – | – | – | 1.03 | 1.09 | 1.07 | 0.893 | 1.07
3 | NCI-H2347 | 0.717 | 0.771 | 0.7 | 0.689 | 0.606 | 0.578 | 0.551 | 0.664 | 0.641 | 0.619 | 0.501 | 0.661 | 0.404 | 0.246 | 0.297 | 0.847 | 1 | 1.04 | 0.831 | 1.04
4 | NCI-H358 | 0.623 | 0.661 | 0.599 | 0.438 | 0.693 | 0.224 | 0.215 | 0.217 | 0.214 | 0.153 | 0.446 | 0.325 | 0.378 | 0.149 | 0.121 | – | – | – | – | –
5 | NCI-H2228 | 0.669 | 0.528 | 0.515 | 0.374 | 0.441 | – | – | – | – | – | 0.185 | 0.144 | 0.137 | 0.123 | 0.109 | 1.11 | 0.987 | 1.44 | 0.808 | 0.86
6 | CAL-12T | 0.839 | 0.912 | 0.673 | 0.362 | 0.596 | – | – | – | – | – | 0.484 | 0.52 | 0.556 | 0.256 | 0.06 | 1.1 | 1.09 | 1.18 | 0.976 | 1.04
7 | NCI-H1793 | – | – | – | – | – | 0.495 | 0.429 | 0.492 | 0.451 | 0.384 | 0.193 | 0.249 | 0.156 | 0.154 | 0.161 | – | – | – | – | –
8 | NCI-H1623 | – | – | – | – | – | – | – | – | – | – | 0.6 | 0.617 | 0.406 | 0.352 | 0.444 | – | – | – | – | –
9 | IA-LM | 1.19 | 0.721 | 0.651 | 0.747 | 1 | – | – | – | – | – | – | – | – | – | – | 0.809 | 0.909 | 0.886 | 0.753 | 0.665
10 | SW 900 | – | – | – | – | – | – | – | 0.407 | 0.421 | 0.391 | 0.172 | 0.146 | 0.151 | 0.159 | 0.178 | – | – | – | – | –
11 | SK-MES-1 | 0.978 | 1.04 | 0.903 | 0.879 | 0.917 | 0.39 | 0.348 | 0.37 | 0.342 | 0.321 | 0.714 | 0.619 | 0.391 | 0.229 | 0.261 | – | – | – | – | –
12 | NCI-H1299 | 0.958 | 0.976 | 0.928 | 0.903 | 0.589 | – | – | – | – | – | – | – | – | – | – | 1.07 | 1.05 | 0.96 | 0.898 | 1.03
13 | NCI-H1563 | 0.843 | 0.887 | 0.899 | 0.832 | 0.987 | – | – | – | – | – | 0.554 | 0.495 | 0.546 | 0.5 | 0.48 | 1.01 | 0.912 | 1.11 | 0.86 | 0.859
14 | NCI-H1944 | 1.18 | 1.12 | 1.09 | 1.01 | 0.977 | 0.526 | 0.446 | 0.477 | 0.475 | 0.383 | 0.716 | 0.784 | 0.773 | 0.54 | 0.302 | – | – | – | – | –
15 | LK-2 | 0.249 | 0.225 | 0.218 | 0.215 | 0.242 | 0.347 | 0.21 | 0.331 | 0.27 | 0.175 | 0.202 | 0.19 | 0.17 | 0.208 | 0.203 | – | – | – | – | –
16 | Calu-6 | 0.845 | 0.873 | 0.846 | 0.764 | 0.772 | – | – | – | – | – | – | – | – | – | – | 1.02 | 1.02 | 1 | 0.837 | 1.06
17 | NCI-H1395 | – | – | – | – | – | 0.791 | 0.694 | 0.753 | 0.797 | 0.695 | 0.654 | 0.668 | 0.616 | 0.472 | 0.374 | – | – | – | – | –
18 | NCI-H1703 | 0.94 | 1.12 | 0.919 | 0.585 | 0.737 | – | – | – | – | – | – | – | – | – | – | 0.338 | 0.432 | 0.28 | 0.25 | 0.336
19 | EBC-1 | 0.204 | 0.213 | 0.191 | 0.189 | 0.22 | – | – | – | – | – | – | – | – | – | – | 0.524 | 0.558 | 0.551 | 0.441 | 0.605
20 | NCI-H2342 | – | – | – | – | – | 0.71 | 0.653 | 0.766 | 0.712 | 0.883 | 0.779 | 0.624 | 0.651 | 0.738 | 0.7 | – | – | – | – | –
21 | NCI-H1648 | – | – | – | – | – | 0.605 | 0.578 | 0.495 | 0.519 | 0.569 | – | – | – | – | – | – | – | – | – | –
22 | NCI-H522 | – | – | – | – | – | 0.658 | 0.674 | 0.662 | 0.646 | 0.58 | 1.3 | 1.01 | 1.08 | 1.03 | 0.699 | – | – | – | – | –
23 | A549 | 0.825 | 0.813 | 0.823 | 0.767 | 0.738 | 0.219 | 0.423 | 0.284 | 0.182 | 0.102 | – | – | – | – | – | – | – | – | – | –
24 | HCC-78 | 0.334 | 0.35 | 0.354 | 0.313 | 0.327 | 0.788 | 0.698 | 0.565 | 0.711 | 0.529 | – | – | – | – | – | 0.623 | 0.464 | 0.534 | 0.463 | 0.301
